Measured values published in the SangsterLogP compilation.

Experiment: method code SF-AS, from DOI: 10.1002/zfch.19810211114

SMILES | logP
C=CCNC(=O)NN | -1.55
CCNC(=O)NN | -1.62
CC(C)(C)NC(=O)NN | -0.81
CCCCCNC(=O)NN | -0.04
CC(C)CNC(=O)NN | -0.84
CCN(CC)C(=O)NN | -0.62
NNC(N)=O | -2.75

More lines, now with the values ahead:

logP | SMILES
-2.2 | CNC(=O)NN
-1.1 | CCCNC(=O)NN
-1.57 | CN(C)C(=O)NN
-0.6 | CCCCNC(=O)NN
0.46 | CCCCCCNC(=O)NN
-0.22 | NNC(=O)NCc1ccccc1
-1.3 | CC(C)NC(=O)NN
0.15 | NNC(=O)NC1CCCCC1
